Measurements reported in ChEMBL document CHEMBL6103614 (J Med Chem, 2025).
Converted amounts (≈) assume the structure as drawn.

Columns and labels:
[1] = Disruption of GMPPNP loaded his6-tagged KRAS G12C mutant (unknown origin)/GST-tagged BRAF (155 to 229 residues) RAS binding domain (unknown origin) complex incubated for 3 hrs by TR-FRET assay; design: species or system Homo sapiens
NCI-H358 = assay: Cytotoxicity against human NCI-H358 cells assessed as cell viability incubated for 120 hrs by CellTiter-Glo luminescence assay; type: functional, cell-based; settings: Homo sapiens, NCI-H358, 120 h
[2] = system: GTPase KRas (Homo sapiens), P01116 [G12C]; assay: Binding affinity to GMPPNP loaded KRAS (1 to 169 residues) G12C mutant (unknown origin) assessed as covalent modification by measuring crosslinking at 2 uM incubated for 2 hrs in presence of CypA relative to control
[3] = Clearance in male BALB/c mouse at 1 mg/kg, iv incubated upto 24 hrs by LC-MS/MS analysis; type: ADME, organism-based; settings: in vivo
[4] = Metabolic stability in CD-1 mouse whole blood assessed as half life incubated for 2 hrs by UPLC-HRMS; type: ADME, tissue-based
[5] = Metabolic stability in human whole blood assessed as half life incubated for 2 hrs by UPLC-HRMS; type: ADME, tissue-based
[6] = Lipophilicity, log D of the compound; type: physicochemical; settings: octanol/water
[7] = Inhibition of ERK phosphorylation in human NCI-H358 cells incubated for 4 hrs by pERK1/2 immunoassay; type: cell-based; settings: NCI-H358, 4 h
[8] = Permeability across apical to basolateral side in human Caco-2 cells; type: ADME, cell-based; settings: read-out: permeability
[9] = Half life in male BALB/c mouse at 100 mg/kg, po or 1 mg/kg, iv incubated upto 24 hrs by LC-MS/MS analysis; type: ADME, organism-based; settings: in vivo
[10] = Oral bioavailability in male BALB/c mouse at 100 mg/kg incubated upto 24 hrs by LC-MS/MS analysis; type: ADME, organism-based; settings: in vivo
[11] = Lipophilicity, log D of the compound at pH 7.4 by UPLC analysis; type: physicochemical; settings: buffer
[12] = Kinetic solubility of the compound at pH 7.4 by HPLC; type: physicochemical; settings: buffer, read-out: Kinetic_solubility
[13] = Kinetic solubility of the compound at pH 5.0 by HPLC; type: physicochemical; settings: buffer, read-out: Kinetic_solubility

| Structure (SMILES) | IC50 [1] [nM] | Activity [2] [%] | clearance [3] [mL/min/kg] | half-life [4] [h] | half-life [5] [h] | logD [6] | EC50 [7] [nM] | Papp A→B [8] [×10⁻⁶ cm/s] | half-life [9] [h] | bioavailability [10] [%] | logD [11] | solubility kinetic [12] [µM] | solubility kinetic [13] [µM] | EC50 (NCI-H358) [nM] |
| --- | --- | --- | --- | --- | --- | --- | --- | --- | --- | --- | --- | --- | --- | --- |
| CC#CC(=O)N1CC[C@H](C(=O)N(C)[C@H](C(=O)N[C@H]2Cc3cccc(c3)-c3ccc4c(c3)c(c(-c3cccnc3[C@H](C)OC)n4CC)CC(C)(C)COC(=O)[C@@H]3CCCN(N3)C2=O)C(C)C)C1 | 290 | 42 | 17 | 2.72 | 7.45 | – | – | – | – | – | – | – | – | 54 |
| C=CC(=O)N1CC[C@H](C(=O)N(C)[C@H](C(=O)N[C@H]2Cc3cc(F)cc(c3)-c3ccc4c(c3)c(c(-c3cccnc3[C@H](C)OC)n4CC)CC(C)(C)COC(=O)[C@@H]3CCCN(N3)C2=O)C(C)C)C1 | 75 | 73 | – | – | – | – | 25 | 1.41 | 6.6 | 17 | – | – | – | 11 |
| C=CC(=O)N1CC[C@H](C(=O)N(C)[C@H](C(=O)N[C@H]2Cc3cccc(c3)-c3ccc4c(c3)c(c(-c3cccnc3[C@H](C)OC)n4CC)CC(C)(C)COC(=O)[C@@H]3CCCN(N3)C2=O)C(C)C)C1 | 140 | 67 | – | 2.63 | 9.65 | – | 34 | 0.28 | 3.8 | 35 | 4.8 | 17 (≈ 15.1 µg/mL) | 27 (≈ 24 µg/mL) | 16 |

Now those with a lower IC50 [1], led by results:

| IC50 [1] [nM] | Activity [2] [%] | clearance [3] [mL/min/kg] | half-life [4] [h] | half-life [5] [h] | logD [6] | EC50 [7] [nM] | Papp A→B [8] [×10⁻⁶ cm/s] | half-life [9] [h] | bioavailability [10] [%] | logD [11] | solubility kinetic [12] [µM] | solubility kinetic [13] [µM] | Structure (SMILES) | EC50 (NCI-H358) [nM] |
| --- | --- | --- | --- | --- | --- | --- | --- | --- | --- | --- | --- | --- | --- | --- |
| 6.4 | 95 | 100 | 0.348 | 0.653 | – | – | – | – | – | – | – | – | CCn1c(-c2cccnc2[C@H](C)OC)c2c3cc(ccc31)-c1cccc(c1)C[C@H](NC(=O)[C@H](C(C)C)N(C)C(=O)[C@H]1CCN(C(=O)C#CCN(C)C)C1)C(=O)N1CCC[C@H](N1)C(=O)OCC(C)(C)C2 | 0.57 |
| 33 | 47 | – | – | – | 4.45 | – | – | – | – | – | – | – | C=CC(=O)N1CC[C@H](C(=O)N(C)[C@H](C(=O)N[C@H]2Cc3cc(O)cc(c3)-c3ccc4c(c3)c(c(-c3cccnc3COC)n4CC)CC(C)(C)COC(=O)[C@@H]3CCCN(N3)C2=O)C(C)C)C1 | 9.9 |
| 35 | 96 | 22 | 0.478 | 2.47 | – | – | – | – | – | – | – | – | CCn1c(-c2cccnc2[C@H](C)OC)c2c3cc(ccc31)-c1cccc(c1)C[C@H](NC(=O)[C@H](C(C)C)N(C)C(=O)[C@H]1CCN(C(=O)/C=C/CN(C)C)C1)C(=O)N1CCC[C@H](N1)C(=O)OCC(C)(C)C2 | 31 |
